Assay results: patent publication US10392383B2, “3-(1H-benzo[d]imidazol-2-yl)-1H-pyrazolo[4,3-b]pyridines and therapeutic uses thereof” (Samumed, LLC, priority 2015, dated 2019)

How the values were obtained:
Assay type in all cases: cell-based
[1] = tested on: Wnt activity (Sp5-Luc reporter, Wnt-responsive promoter) in SW480 colon carcinoma cells; experiment: Wnt activity screening assay: Sp5-Luc reporter gene assay in SW480 cells; details: Homo sapiens, overnight incubation, 10-point curve starting from 10 μM
Method in brief: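 Wnt-driven firefly luciferase in SW480 colon carcinoma cells reports pathway activity after overnight compound exposure (10 μM top concentration, 3-fold steps). Signal is normalized to DMSO controls.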

[2] = tested on: primary human fibroblasts derived from IPF patients (LL29 cells) treated with TGF-β1; experiment: Inhibition of the fibrotic process: αSMA staining in TGF-β1-treated LL29 fibroblasts; details: Fibroblast; for EC50: 96 h, LL29 fibroblasts treated with TGF-β1 (20 ng/mL), 4 days, Table 4; for inhibition at 10 µM: LL29 fibroblasts treated with TGF-β1, Table 4, read-out: percent inhibition at 10 μM (given in parentheses for EC50 >10 μM)
Method in brief: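 EC50 from triplicate-well dose-response fits of % αSMA-positive cells, normalized to TGF-β1-stimulated DMSO controls, with SYTOX-positive dead cells excluded. LL29 IPF fibroblasts received compound at 10 μM–1.87 nM (0.1% DMSO) plus 20 ng/mL TGF-β1 for 4 days in 1% FBS medium; above 10 μM, % inhibition at 10 μM reported.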

[3] = tested on: SW480 colon cancer cells; experiment: Cell viability assay (CellTiter-Blue) in SW480 cells; details: Homo sapiens, 96 h, four days; for EC50: CellTiter-Blue, 10 μM to 0.0045 μM; for inhibition at 10 µM: read-out: percent inhibition at 10 μM (given for EC50 of >10 μM)
Method in brief: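 Resazurin reduction (Ex 560/Em 590 nm, ~3 h reagent incubation) served as the viability read-out after SW480 cells were treated for four days at 37 °C. Doses ran from 10 μM down to 0.0045 μM in eight 1:3 steps. Curves fitted non-linearly for EC50, else % inhibition at 10 μM reported.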

SMILES | EC50 [1] [nM] | EC50 [2] [nM] | EC50 [3] [nM] | inhibition at 10 µM [3] [%] | inhibition at 10 µM [2] [%]
CCC(=O)Nc1cncc(-c2ccc3[nH]nc(-c4nc5c(-c6cccc(F)c6)cccc5[nH]4)c3n2)c1 [Compound 1, N-(5-(3-(4-(3-Fluorophenyl)-1H-benzo[d]imidazol-2-yl)-1H-pyrazolo[4,3-b]pyridin-5-yl)pyridin-3-yl)propionamide] | 1360 | 1180 | 2740 | – | –
CC(C)CC(=O)Nc1cncc(-c2ccc3[nH]nc(-c4nc5c(-c6cccc(F)c6)cccc5[nH]4)c3n2)c1 [Compound 2, N-(5-(3-(4-(3-Fluorophenyl)-1H-benzo[d]imidazol-2-yl)-1H-pyrazolo[4,3-b]pyridin-5-yl)pyridin-3-yl)-3-methylbutanamide] | 1160 | 9860 | > 10000 | 14.2 | –
CN(C)c1cncc(-c2ccc3[nH]nc(-c4nc5c(-c6cccc(F)c6)cccc5[nH]4)c3n2)c1 [Compound 7, 5-(3-(4-(3-fluorophenyl)-1H-benzo[d]imidazol-2-yl)-1H-pyrazolo[4,3-b]pyridin-5-yl)-N,N-dimethylpyridin-3-amine] | 779 | 1440 | 2780 | – | –
CN(C)Cc1cncc(-c2ccc3[nH]nc(-c4nc5c(-c6cccc(F)c6)cccc5[nH]4)c3n2)c1 [Compound 13, 1-(5-(3-(4-(3-Fluorophenyl)-1H-benzo[d]imidazol-2-yl)-1H-pyrazolo[4,3-b]pyridin-5-yl)pyridin-3-yl)-N,N-dimethylmethanamine] | 637 | 616 | 466 | – | –
Fc1cccc(-c2cccc3[nH]c(-c4n[nH]c5ccc(-c6ccncc6)nc45)nc23)c1 [Compound 18, 3-(4-(3-Fluorophenyl)-1H-benzo[d]imidazol-2-yl)-5-(pyridin-4-yl)-1H-pyrazolo[4,3-b]pyridine] | 1320 | 231 | > 10000 | 0 | –
O=C(Nc1cncc(-c2ccc3[nH]nc(-c4nc5c(-c6cccc(F)c6)cccc5[nH]4)c3n2)c1)C1CC1 [Compound 20, N-(5-(3-(4-(3-Fluorophenyl)-1H-benzo[d]imidazol-2-yl)-1H-pyrazolo[4,3-b]pyridin-5-yl)pyridin-3-yl)cyclopropanecarboxamide] | 1080 | 1200 | 4240 | – | –
O=C(Nc1cncc(-c2ccc3[nH]nc(-c4nc5c(N6CCCCC6)cccc5[nH]4)c3n2)c1)C1CC1 [Compound 188, N-(5-(3-(4-(Piperidin-1-yl)-1H-benzo[d]imidazol-2-yl)-1H-pyrazolo[4,3-b]pyridin-5-yl)pyridin-3-yl)cyclopropanecarboxamide] | 3730 | > 10000 | 4540 | – | 49.2
FC1(F)CCN(Cc2cncc(-c3ccc4[nH]nc(-c5nc6c(N7CCCCC7)cccc6[nH]5)c4n3)c2)C1 [Compound 194, 5-(5-((3,3-Difluoropyrrolidin-1-yl)methyl)pyridin-3-yl)-3-(4-(piperidin-1-yl)-1H-benzo[d]imidazol-2-yl)-1H-pyrazolo[4,3-b]pyridine] | 3910 | 6660 | > 10000 | 25.4 | –
Cc1cn(-c2cccc3[nH]c(-c4n[nH]c5ccc(-c6cncc(NC(=O)CC(C)C)c6)nc45)nc23)cn1 [Compound 198, 3-Methyl-N-(5-(3-(4-(4-methyl-1H-imidazol-1-yl)-1H-benzo[d]imidazol-2-yl)-1H-pyrazolo[4,3-b]pyridin-5-yl)pyridin-3-yl)butanamide] | 1040 | 1890 | 1220 | – | –
Cc1cn(-c2cccc3[nH]c(-c4n[nH]c5ccc(-c6cncc(NC(=O)C(C)(C)C)c6)nc45)nc23)cn1 [Compound 204, N-(5-(3-(4-(4-Methyl-1H-imidazol-1-yl)-1H-benzo[d]imidazol-2-yl)-1H-pyrazolo[4,3-b]pyridin-5-yl)pyridin-3-yl)pivalamide] | 1240 | 997 | 1510 | – | –
Cc1cn(-c2cccc3[nH]c(-c4n[nH]c5ccc(-c6cncc(CN7CCCC7)c6)nc45)nc23)cn1 [Compound 210, 3-(4-(4-Methyl-1H-imidazol-1-yl)-1H-benzo[d]imidazol-2-yl)-5-(5-(pyrrolidin-1-ylmethyl)pyridin-3-yl)-1H-pyrazolo[4,3-b]pyridine] | 4110 | > 10000 | 8470 | – | 30.4
Cc1cn(-c2cccc3[nH]c(-c4n[nH]c5ccc(-c6cncc(NC(=O)C7CCC7)c6)nc45)nc23)cn1 [Compound 217, N-(5-(3-(4-(4-Methyl-1H-imidazol-1-yl)-1H-benzo[d]imidazol-2-yl)-1H-pyrazolo[4,3-b]pyridin-5-yl)pyridin-3-yl)cyclobutanecarboxamide] | 2840 | > 10000 | 3500 | – | 0
CN1CCN(c2cccc3[nH]c(-c4n[nH]c5ccc(-c6cncc(NC(=O)C7CCCC7)c6)nc45)nc23)CC1 [Compound 246, N-(5-(3-(4-(4-Methylpiperazin-1-yl)-1H-benzo[d]imidazol-2-yl)-1H-pyrazolo [4,3-b]pyridin-5-yl)pyridin-3-yl)cyclopentanecarboxamide] | 8530 | 4940 | 8360 | – | –
c1cncc(-c2ccc3[nH]nc(-c4nc5ccccc5[nH]4)c3n2)c1 [Compound 256, 3-(1H-Benzo[d]imidazol-2-yl)-5-(pyridin-3-yl)-1H-pyrazolo[4,3-b]pyridine] | 5480 | > 10000 | 8840 | – | 0
CC(C)(C)CC(=O)Nc1cncc(-c2ccc3[nH]nc(-c4nc5ccccc5[nH]4)c3n2)c1 [Compound 268, N-(5-(3-(1H-Benzo[d]imidazol-2-yl)-1H-pyrazolo[4,3-b]pyridin-5-yl)pyridin-3-yl)-3,3-dimethylbutanamide] | 3550 | 2380 | 6950 | – | –
O=C(Nc1cncc(-c2ccc3[nH]nc(-c4nc5ccccc5[nH]4)c3n2)c1)C1CCCCC1 [Compound 275, N-(5-(3-(1H-Benzo[d]imidazol-2-yl)-1H-pyrazolo[4,3-b]pyridin-5-yl)pyridin-3-yl) cyclohexanecarboxamide] | 1980 | 80.8 | 593 | – | –
c1ccc(-c2ccc3[nH]nc(-c4nc5ccccc5[nH]4)c3n2)nc1 [Compound 280, 3-(1H-Benzo[d]imidazol-2-yl)-5-(pyridin-2-yl)-1H-pyrazolo[4,3-b]pyridine] | 611 | 4740 | 1890 | – | –
Cc1ccncc1-c1ccc2[nH]nc(-c3nc4c(-c5ccsc5)cccc4[nH]3)c2n1 [Compound 285, 5-(4-Methylpyridin-3-yl)-3-(4-(thiophen-3-yl)-1H-benzo[d]imidazol-2-yl)-1H-pyrazolo[4,3-b]pyridine] | 986 | > 10000 | 5400 | – | 0
CCCC(=O)Nc1cncc(-c2ccc3[nH]nc(-c4nc5c(-c6ccsc6)cccc5[nH]4)c3n2)c1 [Compound 297, N-(5-(3-(4-(Thiophen-3-yl)-1H-benzo[d]imidazol-2-yl)-1H-pyrazolo[4,3-b]pyridin-5-yl)pyridin-3-yl)butyramide] | 643 | 1300 | 8920 | – | –
c1ccc(CNCc2cncc(-c3ccc4[nH]nc(-c5nc6c(-c7ccsc7)cccc6[nH]5)c4n3)c2)cc1 [Compound 304, N-Benzyl-1-(5-(3-(4-(thiophen-3-yl)-1H-benzo[d]imidazol-2-yl)-1H-pyrazolo[4,3-b]pyridin-5-yl)pyridin-3-yl)methanamine] | 2760 | 2200 | 3460 | – | –
FC1(F)CCN(Cc2cncc(-c3ccc4[nH]nc(-c5nc6c(-c7ccsc7)cccc6[nH]5)c4n3)c2)C1 [Compound 306, 5-(5-((3,3-Difluoropyrrolidin-1-yl)methyl)pyridin-3-yl)-3-(4-(thiophen-3-yl)-1H-benzo[d]imidazol-2-yl)-1H-pyrazolo[4,3-b]pyridine] | 1650 | 1230 | 4790 | – | –
CCNCc1cncc(-c2ccc3[nH]nc(-c4nc5c(-c6ccoc6)cccc5[nH]4)c3n2)c1 [Compound 314, N-((5-(3-(4-(Furan-3-yl)-1H-benzo[d]imidazol-2-yl)-1H-pyrazolo[4,3-b]pyridin-5-yl)pyridin-3-yl)methyl)ethanamine] | 3250 | > 10000 | 584 | – | 0
CCC(=O)Nc1cncc(-c2ccc3[nH]nc(-c4nc5c(-c6cccs6)cccc5[nH]4)c3n2)c1 [Compound 337, N-(5-(3-(4-(Thiophen-2-yl)-1H-benzo[d]imidazol-2-yl)-1H-pyrazolo[4,3-b]pyridin-5-yl)pyridin-3-yl)propionamide] | 3520 | 680 | 3260 | – | –
